This note sets out measurements from patent US20250186450A1, “COMBINATION THERAPY COMPRISING DGK INHIBITORS and PD-1/PD-L1 INHIBITORS” (Incyte Corporation, priority 2023, published 2025).

In general, IC50 refers to the concentration that gives 50% inhibition. A lower IC50 goes with greater potency in that assay.

Each structure is given as a SMILES string.

Assay [1] addresses DGKα (Homo sapiens (Human), UniProt P23743). In words: In vitro DGKα inhibition assay (ADP-Glo). The format is biochemical. Conditions: 0.1 nM DGKα, 50 μM ATP, 20 μM DLG. The protocol: (§1) The DGKα and DGKζ biochemical reactions were performed using His-tagged human recombinant enzymes (Signal Chem, DGKα, #D21-10BH; DGKζ, #D30-10H)) and DLG (Dilauroyl-sn-glycerol) lipid substrate (Signal Chem, #D430-59). ADP-Glo assay was performed using ADP-Glo™ kinase Assay kit (Promega, #V9104). The reactions were carried out in assay buffer containing 40 mM Tris, pH 7.5, 0.1% CHAPS, 0.1% Prionex, 40 mM NaCl, 5 mM MgCl2, 1 mM CaCl2, and 1 mM DTT. DGKα reactions contained 0.1 nM DGKα, 50 μM ATP, and 20 μM DLG. And DGKζ reactions contained 0.4 nM DGKζ, 30 μM ATP, and 20 μM DLG.
(§2) For compound inhibition studies, 40 nL test compound in DMSO was added to wells of white polystyrene plates in 384-well (Greiner, #784075) or 1536-well format (Greiner, #782075). Compounds were added with top concentration of 2 mM with 11 point, 3-fold dilution series. Enzyme solution (contains 2×DGK enzyme concentration in 1× assay buffer) was added to the plate in 2 μL/well volume, followed by 2 μL/well of substrate solution (contains 2× concentration of ATP and DLG substrate in 1× assay buffer). Plates were then centrifuged for 1 min at 1200 RPM and sealed or lidded. For 4 μL reaction volume, test compounds were therefore diluted 100× to final top concentration of 20 μM. After 90 minute incubation, reactions were quenched by addition of 2 μL/well Promega ADP-Glo Reagent, followed by centrifugation and lidding. After 60 min incubation, 2 μL/well Promega Kinase Detection Reagent was added, plates centrifuged, and incubated for 30 min. Plates were then read using Luminescence method on BMG PHERAstar FSX plate reader. Percent inhibition was calculated and IC50s were determined using 4-parameter fit in Genedata Screener. Labcyte Echo acoustic dispenser was used for compound addition, and Formulatrix Tempest liquid handler was used for all reagent dispenses.
On the technique in general: In ADP-Glo the light output rises with the ADP produced.

In assay [2] the target is DGKζ (Homo sapiens (Human), UniProt Q13574). In words: In vitro DGKζ inhibition assay (ADP-Glo). Conditions: 0.4 nM DGKζ, 30 μM ATP, 20 μM DLG. The format is biochemical. As for the experimental part: as §1, §2
DGKζ, sequence (Q13574 whole entry): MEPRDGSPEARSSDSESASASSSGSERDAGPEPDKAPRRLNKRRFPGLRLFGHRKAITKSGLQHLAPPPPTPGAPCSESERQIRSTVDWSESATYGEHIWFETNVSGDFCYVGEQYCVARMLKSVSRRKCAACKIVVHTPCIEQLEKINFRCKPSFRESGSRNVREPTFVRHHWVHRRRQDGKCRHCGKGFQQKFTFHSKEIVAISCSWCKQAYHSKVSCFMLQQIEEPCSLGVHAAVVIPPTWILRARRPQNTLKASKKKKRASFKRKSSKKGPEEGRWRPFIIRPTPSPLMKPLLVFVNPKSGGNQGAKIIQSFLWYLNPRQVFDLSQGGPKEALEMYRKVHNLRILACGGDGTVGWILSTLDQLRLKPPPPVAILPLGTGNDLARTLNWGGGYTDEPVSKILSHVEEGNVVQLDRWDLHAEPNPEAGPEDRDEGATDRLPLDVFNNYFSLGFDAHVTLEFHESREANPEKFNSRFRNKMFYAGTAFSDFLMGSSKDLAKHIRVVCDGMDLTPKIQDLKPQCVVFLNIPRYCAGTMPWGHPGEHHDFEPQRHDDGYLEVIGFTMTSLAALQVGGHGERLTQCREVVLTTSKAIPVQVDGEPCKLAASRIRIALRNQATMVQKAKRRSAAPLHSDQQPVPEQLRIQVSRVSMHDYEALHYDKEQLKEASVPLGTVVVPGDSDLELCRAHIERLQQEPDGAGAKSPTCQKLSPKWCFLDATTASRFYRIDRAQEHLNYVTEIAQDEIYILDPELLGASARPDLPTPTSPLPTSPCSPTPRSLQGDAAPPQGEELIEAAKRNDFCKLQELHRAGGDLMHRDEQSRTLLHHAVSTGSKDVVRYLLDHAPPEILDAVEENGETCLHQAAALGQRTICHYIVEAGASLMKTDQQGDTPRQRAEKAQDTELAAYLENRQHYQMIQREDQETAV

DGKα, sequence (P23743 whole entry): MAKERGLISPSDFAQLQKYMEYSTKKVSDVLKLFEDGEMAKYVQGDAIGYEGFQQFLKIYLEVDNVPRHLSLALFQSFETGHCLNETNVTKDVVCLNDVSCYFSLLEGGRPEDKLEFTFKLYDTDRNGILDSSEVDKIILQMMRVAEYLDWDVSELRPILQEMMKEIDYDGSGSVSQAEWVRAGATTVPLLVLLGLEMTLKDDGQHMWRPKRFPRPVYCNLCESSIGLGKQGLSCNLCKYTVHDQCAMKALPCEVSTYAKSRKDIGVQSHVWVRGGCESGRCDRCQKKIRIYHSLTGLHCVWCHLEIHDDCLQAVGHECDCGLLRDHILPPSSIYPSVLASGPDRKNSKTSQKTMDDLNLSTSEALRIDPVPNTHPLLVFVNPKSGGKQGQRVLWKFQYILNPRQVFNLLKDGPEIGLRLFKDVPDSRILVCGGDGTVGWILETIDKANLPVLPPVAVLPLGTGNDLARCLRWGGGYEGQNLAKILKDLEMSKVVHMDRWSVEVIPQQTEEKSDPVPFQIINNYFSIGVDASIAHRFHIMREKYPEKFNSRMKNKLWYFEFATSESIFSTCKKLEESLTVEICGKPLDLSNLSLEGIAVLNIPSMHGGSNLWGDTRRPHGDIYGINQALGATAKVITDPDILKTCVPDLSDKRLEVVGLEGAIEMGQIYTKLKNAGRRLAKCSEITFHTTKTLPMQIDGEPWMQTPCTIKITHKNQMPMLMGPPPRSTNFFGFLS

In the case of `Cc1nc2c(N3C[C@@H](C)N(C(c4ccc(F)c(Cl)c4)C4CC(F)(F)C4)C[C@@H]3C)nc3nncn3c2n1C[C@@H]1CCCO1` (single isomer, unassigned) [Example 3], the half-inhibitory concentration (IC50) in assay [1] and in assay [2] was no more than 0.02 µM in each case.

Consider `Cc1nc2c(N3C[C@@H](C)N(C(c4ccc(Cl)c(F)c4)C4CC(F)(F)C4)C[C@@H]3C)nc3nncn3c2n1C[C@@H]1CCCO1` (single isomer, unassigned) [Example 4], for which the 50% inhibitory concentration (IC50) in assay [1] and in assay [2] was no more than 0.02 µM each time.

Turning to `C[C@@H]1CN(c2nc3nncn3c3c2ncn3C[C@@H]2CCCO2)[C@@H](C)CN1C(c1ccc(C(F)(F)F)cc1)C1CC(F)(F)C1` (single isomer, unassigned) [Example 6], the half-inhibitory concentration (IC50) in assay [1] and in assay [2] was no more than 0.02 µM throughout.

With `C[C@@H]1CN(c2nc3nncn3c3c2ncn3C[C@@H]2CCCO2)[C@@H](C)CN1C(c1ccc(Cl)cc1)[C@@H]1CC1(F)F` (single isomer, unassigned) [Example 7], the IC50 in assay [1] and in assay [2] was no more than 0.02 µM in each case.

As for `C[C@@H]1CN(c2nc3nncn3c3c2ncn3C[C@@H]2CCCO2)[C@@H](C)CN1C(c1ccc(Cl)cc1)[C@H]1CC1(F)F` (single isomer, unassigned) [Example 8], the concentration for half-maximal inhibition (IC50) in assay [1] and in assay [2] was no more than 0.02 µM throughout.

Consider `Cc1nc2c(N3C[C@@H](C)N(C(c4ccc(Cl)cc4)[C@@H]4CC4(F)F)C[C@@H]3C)nc3nncn3c2n1C[C@@H]1CCCO1` (single isomer, unassigned) [Example 9], for which the half-inhibitory concentration (IC50) in assay [1] and in assay [2] was no more than 0.02 µM throughout.

On to `CC(C)CC(c1ccc(Cl)cc1)N1C[C@H](C)N(c2nc3nncn3c3c2ncn3C[C@@H]2CCCO2)C[C@H]1C` (single isomer, unassigned) [Example 10], for which the IC50 in assay [1] and in assay [2] was no more than 0.02 µM throughout.

For the compound `Cc1nc2c(N3C[C@@H](C)N(C(CC(C)C)c4ccc(Cl)c(F)c4)C[C@@H]3C)nc3nncn3c2n1C[C@@H]1CCCO1` (single isomer, unassigned) [Example 11], the 50% inhibitory concentration (IC50) in assay [1] and in assay [2] was no more than 0.02 µM throughout.

As for `Cc1nc2c(N3C[C@@H](C)N(C(c4ccc(C(F)(F)F)cc4)C4CC(F)(F)C4)C[C@@H]3C)cc3nncn3c2n1C[C@@H]1CCCO1` (single isomer, unassigned) [Example 17], the IC50 in assay [1] and in assay [2] was no more than 0.02 µM each time.

Turning to `C[C@@H]1CN(c2cc3nncn3c3c2ncn3C[C@@H]2CCCO2)[C@@H](C)CN1C(c1ccc(Cl)cc1)[C@@H]1CC1(F)F` (single isomer, unassigned) [Example 18], the figures for the IC50 in assay [1] and in assay [2] were no more than 0.02 µM and 0.02 to 0.2 µM, respectively.

In the case of `CC[C@@H]1CN(c2cc3nncn3c3c2nc(C)n3C[C@@H]2CCCO2)[C@@H](C)CN1C(c1ccc(Cl)cc1)C1CC(F)(F)C1` (single isomer, unassigned) [Example 19], the IC50 in assay [1] and in assay [2] was no more than 0.02 µM in each case.

As for `C[C@@H]1CN(c2cc3nncn3c3c2ncn3C[C@@H]2CCCO2)[C@@H](C)CN1C(c1ccc(Cl)cc1)C1CC(F)(F)C1` (single isomer, unassigned) [Example 22], the IC50 in assay [1] and in assay [2] was no more than 0.02 µM in each case.

Turning to `Cc1nc2c(N3C[C@@H](C)N(C(c4ccc(Cl)cc4)C4CC(F)(F)C4)C[C@@H]3C)cc3nncn3c2n1C[C@@H]1CCCO1` (single isomer, unassigned) [Example 23], the IC50 in assay [1] and in assay [2] was no more than 0.02 µM in each case.

`Cc1nc2c(N3C[C@@H](C)N(C(c4ccc(Cl)cc4)c4ccc(Cl)cc4)C[C@@H]3C)nc3nncn3c2n1C[C@@H]1CCCO1` [Example 5, 4-((2S,5R)-4-(Bis(4-chlorophenyl)methyl)-2,5-dimethylpiperazin-1-yl)-2-methyl-1-(((S)-tetrahydrofuran-2-yl)methyl)-1H-[1,2,4]triazolo[3,4-b]purine]: the IC50 in assay [1] and in assay [2] was no more than 0.02 µM each time.

For `C[C@@H]1CN(c2nc3nncn3c3c2ncn3C[C@@H]2CCCO2)[C@@H](C)CN1C(c1ccc(Cl)cc1)C1CC(F)(F)C1` (stereo partly drawn) [Example 12, 4-((2S,5R)-4-((4-Chlorophenyl)(3,3-difluorocyclobutyl)methyl)-2,5-dimethylpiperazin-1-yl)-1-(((S)-tetrahydrofuran-2-yl)methyl)-1H-[1,2,4]triazolo[3,4-b]purine], the IC50 in assay [1] and in assay [2] was no more than 0.02 µM in each case.

Consider `CC[C@@H]1CN(c2nc3nncn3c3c2ncn3C[C@@H]2CCCO2)[C@@H](C)CN1C(c1ccc(Cl)cc1)C1CC(F)(F)C1` (stereo partly drawn) [Example 13, 4-((2S,5R)-4-((4-Chlorophenyl)(3,3-difluorocyclobutyl)methyl)-5-ethyl-2-methylpiperazin-1-yl)-1-(((S)-tetrahydrofuran-2-yl)methyl)-1H-[1,2,4]triazolo[3,4-b]purine], for which the IC50 in assay [1] and in assay [2] was no more than 0.02 µM throughout.

As for `Cc1nc2c(N3C[C@@H](C)N(Cc4ccc(C(F)(F)F)cc4F)C[C@@H]3C)nc3nncn3c2n1C[C@@H]1CCCO1` [Example 14, 4-((2S,5R)-4-(2-Fluoro-4-(trifluoromethyl)benzyl)-2,5-dimethylpiperazin-1-yl)-2-methyl-1-(((S)-tetrahydrofuran-2-yl)methyl)-1H-[1,2,4]triazolo[3,4-b]purine], the half-maximal inhibitory concentration (IC50) in assay [1] and in assay [2] was no more than 0.02 µM each time.
